In brackets after ≈: the same amount, converted by molar mass. Like-named read-outs stand apart in the source and are kept apart here.
Experiments:
Format in all cases: cell-based
[1] = system: Candida parapsilosis ATCC 22019 (strain J); assay: MIC determination, in vitro antifungal assay (CLSI M27-A3); settings: strain J, MIC-0, 48 h at 35° C.
Method in brief: (§1)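 RPMI 1640/0.165 M MOPS, pH 7.0, 35° C; inoculum 2-4×10^3 CFU/mL from overnight YPD culture adjusted to OD600 0.12 first. CLSI M27-A3, modified. DMSO <1.25%. Endpoint: MIC-0, complete growth inhibition.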

[2] = system: Candida albicans ATCC 10231(R) (strain A); assay: as above; settings: MIC-0 (no visible growth), 48 h at 35° C.
Method in brief: as §1

[3] = system: Candida glabrata ATCC 2001 (strain H); assay: as above; settings: MIC-0, 48 h at 35° C.
Method in brief: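 Yeast inoculum (2-4×10^3 CFU/mL, from OD600 0.12 suspension of overnight YPD culture) tested in MOPS-buffered (0.165 M) RPMI 1640, pH 7.0, at 35 °C. Method follows CLSI M27-A3 broth microdilution, with DMSO kept below 1.25% final.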

[4] = system: human bronchus normal cell line BEAS-2B; assay: In vitro cytotoxicity assay (resazurin); settings: 24 h
Experimental: The human bronchus normal cell line BEAS-2B (ATCC CRL-9609) and the human lung carcinoma cell line A549 (ATCC CRL-185) were kind gifts from the laboratories of Dr. Matthew S. Gentry (University of Kentucky, Lexington, KY, USA) and Dr. David K. Orren (University of Kentucky, Lexington, KY, USA). The mammalian cells were grown in Dulbecco's Modified Eagle's Medium (DMEM) (from ATCC) with 10% fetal bovine serum (FBS) (from ATCC) and 1% Pen/Strep (from ATCC). Cell lines were cultured at 37° C. with 5% CO2 and passaged by trypsinization with 0.05% trypsin:0.53 mM EDTA (from ATCC). Cell confluency was determined by using a Nikon Eclipse TS100 microscope (Minato, Tokyo, Japan).
Cytotoxicity assays were performed as previously described with slight modifications. A549 and BEAS-2B cells were first thawed from stocks and grown. The confluent cells were transferred to a 96-well microtiter plates at density of 3000 cells/well. The 96-well plates were incubated at 37° C. with 5% CO2 overnight. […] The stock solutions were serially diluted in 1.5 mL eppendorf tubes to achieve concentrations of 31-0.12 mg/mL. 1 μL of these 1000× compound stock solutions was then added to 999 μL of DMEM medium in 1.5 mL eppendorf tubes to obtain final concentrations of 31-0.12 μg/mL. […] The 96-well plates were further incubated for 24 h at 37° C. with 5% CO2. To evaluate cell survival, each well was treated with 10 μL (25 mg/L) of resazurin sodium salt (Sigma-Aldrich, St. Louis, MO, USA) and incubated for another 6 h. Metabolically active cells can convert resazurin to the highly fluorescent dye, resorufin, and be detected at A560 excitation and A590 emission using a SpectraMax M5 plate reader (Molecular Devices, San Jose, CA, USA). […] The percentage survival rates were calculated by using the following formula: % cell survival=[(fluorescence of sample)−(fluorescence of background)]×100/[(fluorescence of negative control)−(fluorescence of background)]. Experiments were done in duplicate.

[5] = Lodderomyces parapsilosis, ATCC22019, 48 h, read-out: MIC
[6] = Candida albicans, ATCC10231, 48 h, read-out: MIC
[7] = Nakaseomyces glabratus, ATCC2001, 48 h, read-out: MIC

SMILES	MIC [1, 5]	MIC [2, 6]	MIC [2]	MIC [3]	MIC [3, 7]	MIC [1]	toxicity (in words) ([4]; BEAS-2B at 31 μg/mL)	toxicity (in words) ([4]; BEAS-2B at 15.5 μg/mL)
Fc1ccc(N/N=C/c2ccc(-c3cccc(/C=N/Nc4ccc(F)cc4F)c3)cc2)c(F)c1 [Compound 20a]	31.3 µg/mL (≈ 67.7 µM)	1.95 to 3.9 µg/mL (≈ 4.22 to 8.43 µM)	3.9 µg/mL (≈ 8.43 µM)	–	15.6 µg/mL (≈ 33.7 µM)	–	–	non-toxic
COc1ccc(N/N=C/c2ccc(-c3cccc(/C=N/Nc4ccc(OC)cc4)c3)cc2)cc1 [Compound 15a]	> 31.3 µg/mL	1.95 to 3.9 µg/mL (≈ 4.33 to 8.66 µM)	1.95 µg/mL (≈ 4.33 µM)	–	–	–	–	non-toxic
Fc1cccc(N/N=C/c2ccc(-c3cccc(/C=N/Nc4cccc(F)c4)c3)cc2)c1 [Compound 12a]	31.3 µg/mL (≈ 73.4 µM)	1.95 to 3.9 µg/mL (≈ 4.57 to 9.14 µM)	1.95 µg/mL (≈ 4.57 µM)	–	> 31.3 µg/mL	–	–	–
COc1ccc(N/N=C/c2ccc(-c3ccc(/C=N/Nc4ccc(OC)cc4)cc3)cc2)cc1 [Compound 15b]	7.8 to 15.6 µg/mL (≈ 17.3 to 34.6 µM)	7.8 to 15.6 µg/mL (≈ 17.3 to 34.6 µM)	7.8 µg/mL (≈ 17.3 µM)	7.8 µg/mL (≈ 17.3 µM)	7.8 to 15.6 µg/mL (≈ 17.3 to 34.6 µM)	15.6 µg/mL (≈ 34.6 µM)	–	non-toxic
C(=N\Nc1ccccc1)/c1ccc(-c2cccc(/C=N/Nc3ccccc3)c2)cc1 [Compound 7a]	> 31.3 µg/mL	1.95 to 3.9 µg/mL (≈ 4.99 to 9.99 µM)	1.95 µg/mL (≈ 4.99 µM)	–	> 31.3 µg/mL	–	–	–

Further compounds by falling MIC [1, 5], results first:

MIC [1, 5]	MIC [2, 6]	MIC [2]	MIC [3]	MIC [3, 7]	MIC [1]	SMILES	toxicity (in words) ([4]; BEAS-2B at 31 μg/mL)	toxicity (in words) ([4]; BEAS-2B at 15.5 μg/mL)
31.3 µg/mL (≈ 73.4 µM)	7.8 to 15.6 µg/mL (≈ 18.3 to 36.6 µM)	7.8 µg/mL (≈ 18.3 µM)	15.6 µg/mL (≈ 36.6 µM)	7.8 to 15.6 µg/mL (≈ 18.3 to 36.6 µM)	–	Fc1ccc(N/N=C/c2ccc(-c3ccc(/C=N/Nc4ccc(F)cc4)cc3)cc2)cc1 [Compound 17b]	–	–
31.3 µg/mL (≈ 73.4 µM)	1.95 to 3.9 µg/mL (≈ 4.57 to 9.14 µM)	1.59 to 3.9 µg/mL	–	> 31.3 µg/mL	–	Fc1ccc(N/N=C/c2ccc(-c3cccc(/C=N/Nc4ccc(F)cc4)c3)cc2)cc1 [Compound 17a]	non-toxic	–
15.6 µg/mL (≈ 34.3 µM)	1.95 to 3.9 µg/mL (≈ 4.29 to 8.58 µM)	1.95 µg/mL (≈ 4.29 µM)	–	15.6 µg/mL (≈ 34.3 µM)	–	C/C(=N\Nc1ccc(F)cc1)c1ccc(-c2ccc(/C(C)=N/Nc3ccc(F)cc3)cc2)cc1 [Compound 17c, 4,4′-bis((E)-1-(2-(4-fluorophenyl)hydrazono)ethyl)-1,1′-biphenyl]	–	non-toxic
